Results from US11524938B2, “Aromatic sulfonamide derivatives” (Bayer Pharma Aktiengesellschaft, priority 2016, dated 2022).
pIC50: −log10 of the molar value. Where “and” joins values, the source holds several entries; their conditions need not be identical. Equal entries are not always repeated.

Biological target: T1, human P2X4 (Homo sapiens, UniProt Q99571)
T1 sequence (Q99571 1-388): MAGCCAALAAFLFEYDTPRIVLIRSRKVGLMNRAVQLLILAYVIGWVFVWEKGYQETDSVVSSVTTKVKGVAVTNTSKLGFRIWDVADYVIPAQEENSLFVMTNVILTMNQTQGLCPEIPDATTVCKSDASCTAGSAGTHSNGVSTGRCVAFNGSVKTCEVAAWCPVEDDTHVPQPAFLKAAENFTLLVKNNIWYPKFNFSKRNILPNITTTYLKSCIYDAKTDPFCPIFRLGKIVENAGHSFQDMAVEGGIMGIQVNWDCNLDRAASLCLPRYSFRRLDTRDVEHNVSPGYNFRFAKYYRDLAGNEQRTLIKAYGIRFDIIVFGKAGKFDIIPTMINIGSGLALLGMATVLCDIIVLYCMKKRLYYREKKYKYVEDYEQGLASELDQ
Test: Human P2X4 HEK Cell FLIPR Assay
Type: cell-based
Conditions: agonist Bz-ATP at EC80; for Emax: HEK293, HEK293 cells, percentage of maximal inhibition, read-out: Human P2X4 HEK Cells (FLIPR Assay) avg Efficacy [%]
Procedure: HEK293 cells stably expressing human P2X4 were plated in poly-D-lysine-coated 384-well plates at a seeding density of 30000 cells/well and incubated overnight. P2X4 function was assessed by measuring intracellular calcium changes using the calcium-chelating dye Fluo8-AM (Molecular Devices) on a fluorescent imaging plate reader (FLEX/FLIPR station; Molecular Devices). On the day of the assay, the medium was removed and the cells were incubated for 30 min at 37° C. and 5% CO2 in 30 μL of dye buffer (Hank's balanced salt solution, 10 mM HEPES, 1.8 mM CaCl2, 1 mM MgCl2, 2 mM probenecid, 5 mM D-glucose monohydrate, 5 μM Fluo8-AM, pH=7.4). Compounds diluted in probenecid buffer (Hank's balanced salt solution, 10 mM HEPES, 1.8 mM CaCl2, 1 mM MgCl2, 2 mM probenecid, 5 mM D-glucose monohydrate, pH=7.4) were added in a volume of 10 μL and allowed to incubate for 30 min at room temperature. The final assay DMSO concentration was 0.5%. The agonist, Bz-ATP (Tocris), was added in a volume of 10 μL at a concentration representing the EC80 value. The EC80 value of Bz-ATP was determined each assay day prior to compound profiling. The fluorescence was measured for an interval of 120 sec at 2 sec intervals. The excitation and emission wavelengths used to monitor fluorescence were 470-495 nm and 515-575 nm, respectively. The data was analyzed based on the increase in peak relative fluorescence units (RFU) compared to the basal fluorescence and the data was normalized to the agonist control. The compounds were tested in triplicates per plate and mean values were plotted in Excel XLFit to determine IC50 values, percentage of maximal inhibition and the Hill coefficients.

[1] = HEK293 cells, individual values listed where some fall outside detection range

Question: `NS(=O)(=O)c1cc(NC(=O)Cc2ccc(F)c(F)c2)ccc1-n1cc(C(F)(F)F)cn1` [Example 118, 2-(3,4-Difluorophenyl)-N-{3-sulfamoyl-4-[4-(trifluoromethyl)-1H-pyrazol-1-yl]phenyl}-acetamide] was tested. Which Emax did it give?
Answer: 53%

Question: And the pIC50 [1]?
Answer: 6.46

Question: Which Emax does the source give for `NS(=O)(=O)c1cc(NC(=O)Cc2ccccc2Cl)ccc1-c1nc(C(F)(F)F)cs1` [Example 434, 2-(2-Chlorophenyl)-N-{3-sulfamoyl-4-[4-(trifluoromethyl)-1,3-thiazol-2-yl]phenyl}acetamide] here?
Answer: 50%

Question: What about the pIC50 [1] of the same compound?
Answer: 4.75 and < 4.60

Question: Which Emax does the source give for `COc1ccccc1CC(=O)Nc1ccc(-n2cc(Cl)cn2)c(S(N)(=O)=O)c1` [Example 75, N-[4-(4-Chloro-1H-pyrazol-1-yl)-3-sulfamoylphenyl]-2-(2-methoxyphenyl)acetamide] here?
Answer: 87%

Question: And the pIC50 [1]?
Answer: 6.67

Question: `NS(=O)(=O)c1cc(NC(=O)Cc2ccccc2F)ccc1-n1cccn1` [Example 393, 2-(2-Fluorophenyl)-N-[4-(1H-pyrazol-1-yl)-3-sulfamoylphenyl]acetamide] was tested. Which Emax did it give?
Answer: 49%

Question: How did the Emax turn out when `Cc1cc(C(F)(F)F)nn1-c1ccc(NC(=O)Cc2ccccc2Cl)cc1S(N)(=O)=O` [Example 15, 2-(2-Chlorophenyl)-N-{4-[5-methyl-3-(trifluoromethyl)-1H-pyrazol-1-yl]-3-sulfamoylphenyl}acetamide] was run?
Answer: 99%

Question: What about the pIC50 [1] of the same compound?
Answer: 6.42

Question: `Cc1ncnn1-c1ccc(NC(=O)Cc2ccccc2Cl)cc1S(N)(=O)=O` [Example 6, 2-(2-Chlorophenyl)-N-[4-(5-methyl-1H-1,2,4-triazol-1-yl)-3-sulfamoylphenyl]-acetamide] was tested. Which Emax did it give?
Answer: 84%

Question: And the pIC50 [1]?
Answer: 5.97

Question: With `N#Cc1cnn(-c2ccc(NC(=O)Cc3cc(F)c(F)cc3Cl)cc2S(N)(=O)=O)c1` [Example 205, 2-(2-Chloro-4,5-difluorophenyl)-N-[4-(4-cyano-1H-pyrazol-1-yl)-3-sulfamoylphenyl]-acetamide] as the compound, how does the Emax read?
Answer: 89%

Question: What about the pIC50 [1] of the same compound?
Answer: 7.14

Question: Which Emax does the source give for `CCOc1ccccc1CC(=O)Nc1ccc(-n2cc(C#N)cn2)c(S(N)(=O)=O)c1` [Example 199, N-[4-(4-Cyano-1H-pyrazol-1-yl)-3-sulfamoylphenyl]-2-(2-ethoxyphenyl)acetamide] here?
Answer: 85%

Question: What about the pIC50 [1] of the same compound?
Answer: 6.52

Question: Which results are given for `NS(=O)(=O)c1cc(NC(=O)Cc2ccccc2Cl)ccc1-n1cnc(Cl)c1` [Example 33, N-[4-(4-Chloro-1H-imidazol-1-yl)-3-sulfamoylphenyl]-2-(2-chlorophenyl)acetamide]?
Answer: Emax: 79%; pIC50 [1]: 7.51

Question: `NS(=O)(=O)c1cc(NC(=O)Cc2ccccc2F)cnc1-n1cc(C(F)(F)F)cn1` [Example 381, 2-(2-Fluorophenyl)-N-{5-sulfamoyl-6-[4-(trifluoromethyl)-1H-pyrazol-1-yl]pyridin-3-yl}acetamide] was tested. Which Emax did it give?
Answer: 77%

Question: With `NS(=O)(=O)c1cc(NC(=O)Cc2c(F)cc(F)cc2Cl)ccc1-n1cc(Cl)cn1` [Example 102, 2-(2-Chloro-4,6-difluorophenyl)-N-[4-(4-chloro-1H-pyrazol-1-yl)-3-sulfamoylphenyl]-acetamide] as the compound, how does the Emax read?
Answer: 80%

Question: And the pIC50 [1]?
Answer: 7.00

Question: How did the Emax turn out when `NS(=O)(=O)c1cc(NC(=O)Cc2ccccc2Cl)ccc1-n1cc(C(=O)N2CCCC2)cn1` [Example 442, 2-(2-Chlorophenyl)-N-{4-[4-(pyrrolidin-1-ylcarbonyl)-1H-pyrazol-1-yl]-3-sulfamoylphenyl}acetamide] was run?
Answer: 89%

Question: What about the pIC50 [1] of the same compound?
Answer: 6.74

Question: How did the Emax turn out when `NS(=O)(=O)c1cc(NC(=O)Cc2ccccc2Cl)ccc1-n1cnc(-c2cccnc2)n1` [Example 392, 2-(2-Chlorophenyl)-N-{4-[3-(pyridin-3-yl)-1H-1,2,4-triazol-1-yl]-3-sulfamoylphenyl}acetamide] was run?
Answer: 64%

Question: And the pIC50 [1]?
Answer: 5.02

Question: How did the Emax turn out when `NS(=O)(=O)c1cc(NC(=O)Cc2ccccc2Cl)ccc1-c1ccc(Cl)cn1` [Example 319, 2-(2-Chlorophenyl)-N-[4-(5-chloropyridin-2-yl)-3-sulfamoylphenyl]acetamide] was run?
Answer: 73%

Question: What about the pIC50 [1] of the same compound?
Answer: 5.14

Question: Which results are given for `NS(=O)(=O)c1cc(NC(=O)Cc2ccccc2F)ccc1-n1cnc(C(F)(F)F)n1` [Example 54, 2-(2-Fluorophenyl)-N-{3-sulfamoyl-4-[3-(trifluoromethyl)-1H-1,2,4-triazol-1-yl]phenyl}acetamide]?
Answer: Emax: 75%; pIC50 [1]: 6.25

Question: What does the source list for `N#Cc1cnn(-c2ccc(NC(=O)Cc3cc(F)cc(F)c3)cc2S(N)(=O)=O)c1` [Example 190, N-[4-(4-Cyano-1H-pyrazol-1-yl)-3-sulfamoylphenyl]-2-(3,5-difluorophenyl)acetamide]?
Answer: Emax: 58%; pIC50 [1]: 6.27

Question: What does the source list for `NS(=O)(=O)c1cc(NC(=O)Cc2ccccc2Cl)ccc1-n1cc2ccccc2n1` [Example 396, 2-(2-Chlorophenyl)-N-[4-(2H-indazol-2-yl)-3-sulfamoylphenyl]acetamide]?
Answer: Emax: 44%; IC50 [1]: 9.58 µM and > 25 µM (4×)

Question: Which Emax does the source give for `NS(=O)(=O)c1cc(NC(=O)Cc2cccc(F)c2)ccc1-c1cncc(C(F)(F)F)c1` [Example 447, 2-(3-Fluorophenyl)-N-{3-sulfamoyl-4-[5-(trifluoromethyl)pyridin-3-yl]phenyl}acetamide] here?
Answer: 68%

Question: What about the pIC50 [1] of the same compound?
Answer: 5.99

Question: For `NS(=O)(=O)c1cc(NC(=O)Cc2cccc(Cl)c2)ccc1-c1ccccc1` [Example 272, 2-(3-Chlorophenyl)-N-(2-sulfamoylbiphenyl-4-yl)acetamide], which Emax is on record?
Answer: 90%

Question: And the pIC50 [1]?
Answer: 6.29

Question: Which results are given for `NS(=O)(=O)c1cc(NC(=O)Cc2cccnc2Cl)ccc1-n1cc(Cl)cn1` [Example 89, N-[4-(4-Chloro-1H-pyrazol-1-yl)-3-sulfamoylphenyl]-2-(2-chloropyridin-3-yl)-acetamide]?
Answer: Emax: 83%; pIC50 [1]: 5.64

Question: With `COCCn1cc(-c2ccc(NC(=O)Cc3ccccc3Cl)cc2S(N)(=O)=O)cn1` [Example 268, 2-(2-Chlorophenyl)-N-{4-[1-(2-methoxyethyl)-1H-pyrazol-4-yl]-3-sulfamoylphenyl}-acetamide] as the compound, how does the Emax read?
Answer: 103%

Question: And the pIC50 [1]?
Answer: 8.30

Question: Which results are given for `N#Cc1cnn(-c2ccc(NC(=O)Cc3c(Cl)cccc3Cl)cc2S(N)(=O)=O)c1` [Example 187, N-[4-(4-Cyano-1H-pyrazol-1-yl)-3-sulfamoylphenyl]-2-(2,6-dichlorophenyl)acetamide]?
Answer: Emax: 84%; pIC50 [1]: 7.48

Question: `NS(=O)(=O)c1cc(NC(=O)Cc2ccccc2Cl)ccc1-n1cnc2ncccc21` [Example 44, 2-(2-Chlorophenyl)-N-[4-(1H-imidazo[4,5-b]pyridin-1-yl)-3-sulfamoylphenyl]-acetamide] was tested. Which Emax did it give?
Answer: 97%

Question: What about the pIC50 [1] of the same compound?
Answer: 6.42

Question: How did the Emax turn out when `NS(=O)(=O)c1cc(NC(=O)Cc2cccc(Cl)c2Cl)ccc1-c1cnn(C(F)F)c1` [Example 229, 2-(2,3-Dichlorophenyl)-N-{4-[1-(difluoromethyl)-1H-pyrazol-4-yl]-3-sulfamoylphenyl}-acetamide] was run?
Answer: 94%

Question: What about the pIC50 [1] of the same compound?
Answer: 7.80

Question: `NS(=O)(=O)c1cc(NC(=O)Cc2cccc(Cl)c2)ccc1-n1cc(C(F)(F)F)cn1` [Example 120, 2-(3-Chlorophenyl)-N-{3-sulfamoyl-4-[4-(trifluoromethyl)-1H-pyrazol-1-yl]phenyl}-acetamide] was tested. Which Emax did it give?
Answer: 31%

Question: What about the pIC50 [1] of the same compound?
Answer: < 4.60

Question: How did the Emax turn out when `NS(=O)(=O)c1cc(NC(=O)Cc2ccccc2Cl)ccc1-n1cc(C2CC2)cn1` [Example 478, 2-(2-Chlorophenyl)-N-[4-(4-cyclopropyl-1H-pyrazol-1-yl)-3-sulfamoylphenyl]acetamide] was run?
Answer: 82%

Question: And the pIC50 [1]?
Answer: 7.33

Question: How did the Emax turn out when `NS(=O)(=O)c1cc(NC(=O)Cc2ccccc2Cl)ccc1-c1csc(C2CC2)n1` [Example 431, 2-(2-Chlorophenyl)-N-[4-(2-cyclopropyl-1,3-thiazol-4-yl)-3-sulfamoylphenyl]acetamide] was run?
Answer: 83%

Question: What about the pIC50 [1] of the same compound?
Answer: 5.54

Question: Which results are given for `Cc1ccc(CC(=O)Nc2ccc(-n3cc(C(F)(F)F)nn3)c(S(N)(=O)=O)c2)cc1` [Example 409, 2-(4-Methylphenyl)-N-{3-sulfamoyl-4-[4-(trifluoromethyl)-1H-1,2,3-triazol-1-yl]phenyl}acetamide]?
Answer: Emax: 85%; pIC50 [1]: 6.35

Question: `CC(C)c1ccccc1CC(=O)Nc1ccc(-n2cc(F)cn2)c(S(N)(=O)=O)c1` [Example 167, N-[4-(4-Fluoro-1H-pyrazol-1-yl)-3-sulfamoylphenyl]-2-(2-isopropylphenyl)acetamide] was tested. Which Emax did it give?
Answer: 94%

Question: What about the pIC50 [1] of the same compound?
Answer: 7.19
